The values that follow come from patent US5929082A, “Potassium ion channel blockers” (priority 1995, dated 1999).

Details of data set [1]: species or system Sprague-Dawley rats. The following applies: rat, in vivo, po. The procedure:
Representative compounds were evaluated for their effect on glucose tolerance following oral administration at doses ranging from 0.005 mg/kg to 100 mg/kg. Normal male Sprague-Dawley rats were dosed with a test compound daily for five days, and were fasted overnight prior to days 1 and 5. Control animals were given ether vehicle only, or Glibenclamide (glyburide; N-[4-(β-)(2-methoxy-5-chlorobenzamido)ethyl)benzosulphonyl)-N'-cyclohexylurea]; 2 mg/kg/day). Blood was collected on day zero and on days one and five at 0, 0.5, 1, 1.5 and 2 hours after drug administration. Blood glucose concentrations were then measured in duplicate using standard glucose oxidase analysis. The samples were assayed using a Hitachi U-200 Spectrophotometer at a wavelength of 505 nm. The weight gain of each rat was also measured over the five day period, and all results were compared to both the negative control group (dosing with vehicle only) and the positive control group (dosing with Glibenclamide). […] Doses of drugs administered were minimised so as to reduce differences in weight gain whilst retaining hypoglycaemic activity. […]
Each point represents the effect of each dose on the rats glucose tolerance or ability to gain weight, expressed as a percentage of the control (normal) response (where control=100% response). […]

Data set [2] is described as follows: Hypoglycaemic activity: change in blood glucose after oral gavage. The format is in vivo, Sprague Dawley rats. The following applies: 1.6 mg/kg oral gavage, normal fed male rats. The procedure: The biological activity of representative compounds of the invention was evaluated by means of several different tests. The activity of compounds of this invention as hypoglycaemic agents was measured and compared with the activity of the known compound of Example 1, using methods described in the literature. Thus normal, fed male Sprague Dawley rats weighing between 275 and 375 g were studied for changes in blood sugar levels and alterations to mean arterial blood pressure following administration of representative compounds of the invention suspended in a 5% solution of gum acacia by oral gavage at a dose of 1.6 mg/kg. The concentration of each compound was 4 mg in 10 ml, so that each rat received 1.1-1.5 ml to obtain the desired dose on a body weight basis. The blood sugar levels were recorded for each rat immediately prior to administration, and at 1, 2, and 3 hr following administration of the test compounds. Blood glucose levels were determined on blood samples taken from the tail, and analysed on an Ames blood glucometer, model 5626, and Ames, 2627 blood glucose strips (number 2). […] It is apparent that generally the heterocyclic sulphonylthioureas have greater activity than the sulphonylureas. Without wishing to be bound by any proposed mechanism for the observed effect, we believe that this may be associated with differences in lipid permeability.

Data set [3] has as its system MCF-7 human mammary carcinoma cells. Conditions: concentration-dependent; Woodfork et al, 1995; read-out: IC50, inhibition of cell proliferation; cited from earlier work.
Data set [4] shares this test system. The following applies: Woodfork et al, 1995, cited from earlier work.
A short description of data set [5]: Kinetic/metabolite studies: HPLC analysis of plasma after oral administration. It counts as in vivo, Sprague-Dawley rats. The following applies: after oral administration, HPLC. The procedure: Plasma samples were collected in order to test the correlation of plasma drug (or metabolite) concentration with hypoglycaemic activity, and to determine whether compounds of the invention were converted in vivo into active metabolites. The plasma levels of test compounds or metabolites also give an indication of rate of metabolism and kinetics of drug action.
Blood samples collected from rats treated as above and collected at the same intervals were analysed using an ICI LC1150 HPLC system and a LC1210 UV detector at a wavelength of 227 nm. The HPLC system used a Merck LiChroCART 125-4 LiChrosphere 100 RP-18 HPLC and LiChrosphere 100 RP-18 guard columns. The mobile phase consisted of 70% acetonitrile and a 30% aqueous sodium phosphate buffer at pH 7.45 and was prepared using standard HPLC grade reagents and distilled water. To improve the resolution of peaks and separation of the compounds a gradient method was established where changes in the concentration of the required buffers and solvents, and the time at which these changes occur is outlined in Table 7. The volumes are expressed as percentages of the total flow rate, with the flow rate remaining constant at […].
The data were acquired using the WinChrom Data Management system and were calibrated using stock solutions of the test compounds and Glibenclamide as an internal standard dissolved in 100% methanol
Plasma (250 μL) collected from the rats were extracted into methanol (700 μL) and 50 μL of Glibenclamide (25 μg/ml). The mixture was then agitated with a vortex mixer for 15 sec and centrifuged for 10 min. The clear supernatant was then carefully aspirated for HPLC analysis.
The results are outlined in Table 8 and show retention times (minutes) for the compounds and their metabolites as analysed by HPLC after oral administration in Sprague-Dawley rats. […] Glibenclamide is shown for comparison only, none of the metabolites observed with the test compounds correspond to metabolites of Glibenclamide.

Data set [6] has as its system MCF-7 mammary carcinoma cells. Kind of data set: Thymidine uptake ([methyl-3H] thymidine incorporation into DNA). It counts as cell-based, human. The following applies: 100 μM (printed 100 μH / 100 mM), compared to control group; Glibenclamide n=3, Compound 1-24 n=4. The procedure: Incorporation of [methyl-3H] thymidine into DNA was measured as described by Murphy and Lazarus (1983), using MCF-7 mammary carcinoma cells treated with compound 1-24 (100 μH) and a control group. The growth medium from cells cultured as described in Example 24 was aspirated from the wells, and 1 mL of fresh growth medium containing 1 μCi [3H]-thymidine (Amersham) was added to each well After 4 hours incubation, the medium was aspirated and the monolayers were washed three times with ice cold phosphate buffered saline (ICN). This was followed by three washes with 10% (v/v) ice cold trichloroacetic acid, each of 5 minutes duration. After another three washes with absolute ethanol at room temperature of 5 minutes duration, the monolayer was dried at room temperature for 10 minutes. The monolayer was […] after incubation for 12 hours with 0.5 N NaOH and 1% Triton-X 100 (Sigma). An aliquot of the cell lysate was added to 10 ml of Ultima Gold (Packard) and counted using a liquid scintillation counter (Packard model 19006A).

Another data set deals with rat heart. The following applies: 1 μM, rat heart stimulated at 5 Hz; Kantor et al, 1987; cited from earlier work.

In the case of `COc1ccc(Cl)cc1C(=O)NCCc1ccc(S(=O)(=O)NC(=O)NC2CCCCC2)cc1` [Glibenclamide, reference compound], the “weight gain over a five day period” value in data set [1] is “decreased their observed weight gain”. Further, the “Change in Blood Glucose, 0 hours” value in data set [2] (0 hours) was found to be 0.0 mmol/L. Moreover, in data set [2] (1 hour), the “Change in Blood Glucose, 1 Hour” value came to 0.6 mmol/L. Moreover, the “Change in Blood Glucose, 2 Hours” value in data set [2] (2 hours) was -2.1 mmol/L. The “Change in Blood Glucose, 3 Hours” value in data set [2] (3 hours) was -2.4 mmol/L. For the same molecule, the IC50 in data set [3] was 50 µM. Besides, the “accumulation at the G0/G1 phase in cell cycle distribution” value in data set [4] is given as “statistically significant accumulation at the G0/G1 phase”. In addition, the cell-cycle arrest result in data set [4] (inhibition of KATP channels) is recorded as “reversible cell-cycle arrest”. For the same molecule, in data set [5], the Compound in plasma result was “no”. In addition, the “inhibition of thymidine uptake” value in data set [6] is “significant inhibition”. Besides, the “effect on ischaemia-induced ventricular arrhythmias / K+ loss” value in the data set with rat heart is given as “prevent or reduce ischaemia-induced ventricular arrhythmias”.
